The values below come from patent publication US8168592B2 (Amgen Inc., priority 2005, dated 2012).

Like-named read-outs stand apart in the source and are kept apart here. Bridge positions count the residues as written; N and C are the ends. Square brackets hold non-standard residues; d marks the D form. Ends that are not written are not given here. Peptide text beside a SMILES is read from it. hArg = N=C(N)NCCCC[C@H](N)C(=O)O; Cit = NC(=O)NCCC[C@H](N)C(=O)O; PEG = not defined here; Ahx = NCCCCCC(=O)O

The target in the assay is T1, CGRP1 receptor (Homo sapiens, UniProt O60894+Q16602).
T1 construct: SK-N-MC cells express CRLR and RAMP1, which form CGRP1 receptor; endogenous in cells; host or cells: SK-N-MC human neuroblastoma cells
T1 sequence (Q16602 23-461): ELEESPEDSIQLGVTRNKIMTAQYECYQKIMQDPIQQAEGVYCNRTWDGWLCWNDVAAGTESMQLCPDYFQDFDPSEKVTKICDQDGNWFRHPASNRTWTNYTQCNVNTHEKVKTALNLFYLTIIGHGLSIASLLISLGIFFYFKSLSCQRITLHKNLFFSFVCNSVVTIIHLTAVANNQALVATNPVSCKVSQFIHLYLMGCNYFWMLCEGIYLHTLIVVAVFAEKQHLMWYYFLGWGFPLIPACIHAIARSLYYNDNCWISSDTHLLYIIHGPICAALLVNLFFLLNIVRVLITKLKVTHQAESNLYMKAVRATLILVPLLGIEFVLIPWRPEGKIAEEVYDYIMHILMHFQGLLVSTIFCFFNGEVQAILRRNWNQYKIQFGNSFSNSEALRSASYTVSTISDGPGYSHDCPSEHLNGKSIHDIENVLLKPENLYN
T1 sequence (O60894 27-148): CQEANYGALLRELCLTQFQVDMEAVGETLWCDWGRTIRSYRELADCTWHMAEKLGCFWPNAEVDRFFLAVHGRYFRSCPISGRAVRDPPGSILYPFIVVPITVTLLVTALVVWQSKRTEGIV
The assay can be described thus: in vitro CGRP1 receptor mediated cAMP assay in SK-N-MC cells. The format is cell-based. As to the method: The in vitro cAMP assay employed a human neuroblastoma-derived cell line (SK-N-MC). SK-N-MC cells express CRLR and RAMP1, which form CGRP1 receptor. CGRP1 receptor is a G-protein coupled receptor linked to the stimulatory G-protein, Gs. […] Briefly, two days before the assay, the cells were plated in 96-well plates in growth medium. On the day of the assay cells were rinsed with PBS followed by the addition of 60 μl of plasma free medium for 15 minutes at room temperature. […] The medium was then removed and the cells were lysed with 100 μl lysis buffer for 30 minutes at 37° C. for 30 minutes. Using a Tropix ELISA kit (Applied Biosystems, Foster City, Calif.), a cAMP-AP conjugate was diluted (1:100) and added (30 μl) to each well of a 96-well ELISA plate. An aliquot of the lysis buffer from the cell plate was then added to the ELISA plate followed by an aliquot of the cAMP antibody. This mixture was incubated for 1 hour at room temperature with gentle shaking. The ELISA plate was then washed 6× with wash buffer followed by the additions of a substrate enhancer. This mixture was incubated for 30 minutes at room temperature and then read on a MicroBeta Jet or EnVision plate reader. The results were analyzed using Prism (GraphPad).
In general terms: Changes in cAMP serve as a functional read-out for many G protein-coupled receptors.

The mark [1] stands for this setting: Table 2C, unconjugated peptide, read-out: Peptide IC50.

By IC50 is commonly meant the concentration that gives 50% inhibition.

`CC(=O)N[C@@H](Cc1c[nH]c2ccccc12)C(=O)N[C@H](C(=O)N[C@H](C(=O)N[C@@H](Cc1c[nH]cn1)C(=O)N[C@@H](CCCNC(N)=O)C(=O)N[C@@H](CC(C)C)C(=O)N[C@@H](C)C(=O)NCC(=O)N[C@@H](CC(C)C)C(=O)N[C@@H](CC(C)C)C(=O)N[C@@H](CO)C(=O)N[C@@H](CCCNC(N)=O)C(=O)N[C@@H](CO)C(=O)NCC(=O)NCC(=O)N[C@H](C(=O)N[C@H](C(=O)N[C@@H](CCCNC(=N)N)C(=O)N[C@@H](CCCCN)C(=O)N[C@@H](CC(N)=O)C(=O)N[C@@H](Cc1ccccc1)C(=O)N[C@H](C(=O)N1CCC[C@H]1C(=O)N[C@H](C(=O)N[C@@H](CC(=O)O)C(=O)N[C@H](C(=O)NCC(=O)N1CCC[C@H]1C(=O)N[C@@H](Cc1ccccc1)C(=O)N[C@@H](C)C(=O)N[C@@H](Cc1ccc(I)cc1)C(N)=O)C(C)C)[C@@H](C)O)C(C)C)C(C)C)C(C)C)[C@@H](C)O)C(C)C` [compound 923]: the IC50 under setting [1] came out at 2.24 nM.
“H-CGGGGGGGVTHRLAGLLSRSGGVVKNNFVPTDVGPFAF-NH2 [compound 3]”: the IC50 (Table 3, unconjugated CGRP peptide analogs, n = 2-4, read-out: IC50) was 0.72 nM.
Turning to “SEQ ID NO:8 (Ac-WVTHRLAGLLSRSGGVVRCNFVPTDVGPFAF-NH2)”, the “antagonist activity in cAMP assay, in words” value (“antagonist activity … in words” below) is reported as “somewhat less active”. The “improvement in potency compared to SEQ ID NO:9” value (unPEGylated peptides) was “more than 4 fold”.
As for `CC(=O)N[C@@H](Cc1c[nH]c2ccccc12)C(=O)N[C@H](C(=O)N[C@H](C(=O)N[C@@H](Cc1cnc[nH]1)C(=O)N[C@@H](CCCCNC(=N)N)C(=O)N[C@@H](CC(C)C)C(=O)N[C@@H](C)C(=O)NCC(=O)N[C@@H](CC(C)C)C(=O)N[C@@H](CC(C)C)C(=O)N[C@@H](CO)C(=O)N[C@@H](CCCCNC(=N)N)C(=O)N[C@@H](CO)C(=O)NCC(=O)NCC(=O)N[C@H](C(=O)N[C@H](C(=O)N[C@@H](CCCNC(=N)N)C(=O)N[C@@H](CCCCN)C(=O)N[C@@H](CC(N)=O)C(=O)N[C@@H](Cc1ccccc1)C(=O)N[C@H](C(=O)N1CCC[C@H]1C(=O)N[C@H](C(=O)N[C@@H](CC(=O)O)C(=O)N[C@H](C(=O)NCC(=O)N1CCC[C@H]1C(=O)N[C@@H](Cc1ccccc1)C(=O)N[C@@H](C)C(=O)N[C@@H](Cc1ccccc1)C(N)=O)C(C)C)[C@@H](C)O)C(C)C)C(C)C)C(C)C)[C@@H](C)O)C(C)C` [compound 784], the IC50 (Table 2D, read-out: IC50) is 2.1 nM.
For `CC(=O)N[C@@H](Cc1c[nH]c2ccccc12)C(=O)N[C@H](C(=O)N[C@H]1CCC(=O)NCCCC[C@@H](C(=O)NCC(=O)N[C@@H](CC(C)C)C(=O)N[C@@H](CC(C)C)C(=O)N[C@@H](CO)C(=O)N[C@@H](CCCNC(N)=O)C(=O)N[C@@H](CO)C(=O)NCC(=O)NCC(=O)N[C@H](C(=O)N[C@H](C(=O)N[C@@H](CCCCNC(=N)N)C(=O)N[C@@H](CCCCN)C(=O)N[C@@H](CC(N)=O)C(=O)N[C@@H](Cc2ccccc2)C(=O)N[C@H](C(=O)N2CCC[C@H]2C(=O)N[C@H](C(=O)N[C@@H](CC(=O)O)C(=O)N[C@H](C(=O)NCC(=O)N2CCC[C@H]2C(=O)N[C@@H](Cc2ccccc2)C(=O)N[C@@H](C)C(=O)N[C@@H](Cc2ccccc2)C(N)=O)C(C)C)[C@@H](C)O)C(C)C)C(C)C)C(C)C)NC(=O)[C@H](CC(C)C)NC(=O)[C@H](CCCNC(N)=O)NC(=O)[C@H](Cc2c[nH]cn2)NC1=O)C(C)C` [compound 907] (Ac-WVEH[Cit]LKGLLS[Cit]SGGVV[hArg]KNFVPTDVGPFAF-NH2; lactam 3-7), the IC50 under setting [1] worked out at 0.83 nM.
For “SEQ ID NO:16 (Ac-WVTHRLAGLLSRSGGVVRK(PEG)NFVPTDVGPFAF-NH2; reading uncertain)”, for the setting “cAMP assay”, the “improved potency relative to native CGRP(8-37) (SEQ ID NO:1)” value was “about 12 fold” and the “loss in antagonist activity on PEGylation relative to the unconjugated parent peptide” value is reported as “three”.
For “SEQ ID NO:2 (CGGGGGGGVTHRLAGLLSRSGGVVKNNFVPTNVGSKAF-NH2)”, the “antagonist activity … in words” value is “deleterious to potency”.
In the case of “SEQ ID NO:40 (Ac-WVTHQLAGLLSQSGGVVRK(PEG)NFVPTDVGPFAF-NH2; reading uncertain)”, the “antagonist activity … in words” value is given as “reasonably good in vitro potency”.
On to “Ac-WVTHRLAGLLSRSGGVKRNNFVPTDVGPFAF-NH2 [compound 823]”, for which, where the note is “Table 2D, read-out: IC50”, the IC50 worked out at 0.51 nM.
Consider “Ac-WVTHRLAGLLSASGGVVRCNFVPTDVGPFAF-NH2 [compound 772]”, for which the 50% inhibitory concentration (IC50) (Table 2D, read-out: IC50) was determined as 2.75 nM.
In the case of `CC(=O)N[C@H](C(=O)N[C@H](C(=O)N[C@H](C(=O)N[C@H](C(=O)N[C@@H](Cc1c[nH]cn1)C(=O)N[C@@H](CCCNC(N)=O)C(=O)N[C@@H](CC(C)C)C(=O)N[C@@H](C)C(=O)NCC(=O)N[C@@H](CC(C)C)C(=O)N[C@@H](CC(C)C)C(=O)N[C@@H](CO)C(=O)N[C@@H](CCCNC(N)=O)C(=O)N[C@@H](CO)C(=O)NCC(=O)NCC(=O)N[C@H](C(=O)N[C@H](C(=O)N[C@@H](CCCCNC(=N)N)C(=O)N[C@@H](CCCCN)C(=O)N[C@@H](CC(N)=O)C(=O)N[C@@H](Cc1ccccc1)C(=O)N[C@H](C(=O)N1CCC[C@H]1C(=O)N[C@H](C(=O)N[C@@H](CC(=O)O)C(=O)N[C@H](C(=O)NCC(=O)N1CCC[C@H]1C(=O)N[C@@H](Cc1ccccc1)C(=O)N[C@@H](C)C(N)=O)C(C)C)[C@@H](C)O)C(C)C)C(C)C)C(C)C)[C@@H](C)O)C(C)C)C(C)C)C(C)C` [compound 654] (Ac-VVVTH[Cit]LAGLLS[Cit]SGGVV[hArg]KNFVPTDVGPFA-NH2), the half-maximal inhibitory concentration (IC50) (Table 2A, read-out: IC50) was greater than 1000 nM.
As for `CC(C)C[C@H](NC(=O)CNC(=O)[C@H](C)NC(=O)[C@H](CC(C)C)NC(=O)[C@H](CCCNC(=N)N)NC(=O)[C@H](Cc1c[nH]cn1)NC(=O)[C@@H](NC(=O)[C@@H](NC(=O)[C@H](Cc1c[nH]c2ccccc12)NC(=O)CCCCCNC(=O)[C@@H](N)CS)C(C)C)[C@@H](C)O)C(=O)N[C@@H](CC(C)C)C(=O)N[C@@H](CO)C(=O)N[C@@H](CCCNC(=N)N)C(=O)N[C@@H](CO)C(=O)NCC(=O)NCC(=O)N[C@H](C(=O)N[C@H](C(=O)N[C@@H](CCCNC(=N)N)C(=O)N[C@@H](CCCCN)C(=O)N[C@@H](CC(N)=O)C(=O)N[C@@H](Cc1ccccc1)C(=O)N[C@H](C(=O)N1CCC[C@H]1C(=O)N[C@H](C(=O)N[C@@H](CC(=O)O)C(=O)N[C@H](C(=O)NCC(=O)N1CCC[C@H]1C(=O)N[C@@H](Cc1ccccc1)C(=O)N[C@@H](C)C(=O)N[C@@H](Cc1ccccc1)C(N)=O)C(C)C)[C@@H](C)O)C(C)C)C(C)C)C(C)C` [compound 916] (H-C[Ahx]WVTHRLAGLLSRSGGVVRKNFVPTDVGPFAF-NH2), the 50% inhibitory concentration (IC50) under setting [1] is 1.8 nM.
Where the note is “Peptide IC50, Table 2C, unconjugated peptide”, `CC(=O)N[C@@H](Cc1c[nH]c2ccccc12)C(=O)N[C@H](C(=O)N[C@H]1CCC(=O)NCCCC[C@@H](C(=O)NCC(=O)N[C@@H](CC(C)C)C(=O)N[C@@H](CC(C)C)C(=O)N[C@@H](CO)C(=O)N[C@@H](CCCNC(N)=O)C(=O)N[C@@H](CO)C(=O)NCC(=O)NCC(=O)N[C@H](C(=O)N[C@H](C(=O)N[C@@H](CCCNC(=N)N)C(=O)N[C@@H](CCCCN)C(=O)N[C@@H](CC(N)=O)C(=O)N[C@@H](Cc2ccccc2)C(=O)N[C@H](C(=O)N2CCC[C@H]2C(=O)N[C@H](C(=O)N[C@@H](CC(=O)O)C(=O)N[C@H](C(=O)NCC(=O)N2CCC[C@H]2C(=O)N[C@@H](Cc2ccccc2)C(=O)N[C@@H](C)C(=O)N[C@@H](Cc2ccccc2)C(N)=O)C(C)C)[C@@H](C)O)C(C)C)C(C)C)C(C)C)NC(=O)[C@H](CC(C)C)NC(=O)[C@H](CCCNC(=N)N)NC(=O)[C@H](Cc2c[nH]cn2)NC1=O)C(C)C` [compound 893] (Ac-WVEHRLKGLLS[Cit]SGGVVRKNFVPTDVGPFAF-NH2; lactam 3-7) registered a concentration for half-maximal inhibition (IC50) of 1.64 nM.
On to “Ac-WVTHRLAGLLSRPGGVVRKNFVPTDVGPFAF-NH2 [compound 860]”, for which the IC50 under setting [1] amounted to 1.42 nM.
